Results from patent EP1803452A1, “ESTER DERIVATIVE AND PHARMACEUTICAL USE THEREOF” (Japan Tobacco, Inc., priority 2004, dated 2006).

What was measured:
[1] = Metabolic stability test in liver S9; type: in vitro ADME; details: pH 7.4, human liver S9 2 mg protein/mL, LC/MS; for remaining at 10 min: unchanged form after 10 minutes at 37°C, read-out: Remaining rate in human liver S9 (%/10min); for remaining at 1 h: unchanged form after 60 minutes at 37°C, read-out: Remaining rate in human liver S9 (%/60min)
Experimental: Human liver S9 (final concentration: 2 mg protein/mL), was suspended in 100 mM potassium phosphate buffer (pH 7.4, containing β-nicotinamide adenine dinucleotide phosphate: 1.3 mM, D-glucose-6- phosphate: 3.3 mM, magnesium chloride: 3.3 mM, glucose-6-phosphate dehydrogenase:0.4 U/mL). The suspension was mixed with a solution of a sample dissolved in DMSO. The solution was incubated at 37°C for 0, 10 and 60 minutes, and an acetonitrile containing formic acid (final concentration: 0.1%) was added thereto. The solutions were centrifuged, and the concentration of the sample (unchanged form) in the supernatant was determined by high performance liquid chromatography/mass spectrometry (LC/MS). Based on the data obtained, remaining rate (%) was calculated according to the following equation. Remaining rate(%) = amount of sample 0,10, or 60 minutes after [formula] incubation/amount of sample at zero time after incubation × 100 [formula]
(§1) With respect to the compounds obtained in Working Examples according to the present invention (Compounds 1-1 to 1-115, 2-1, 3-1, 3-2, and 4-1 to 4-4), the results of the remaining rate in human liver S9 and plasma are shown in Tables 28 to 32.

[2] = Stability test in buffer (pH 7.4); type: physicochemical; details: phosphate buffer/acetonitrile 7:3, 100 mM potassium phosphate buffer (pH 7.4) and acetonitrile 7:3 (v/v), LC/MS; for remaining at 10 min: 10 minutes at 37°C, read-out: Buf. remaining rate (%/10min); for remaining at 1 h: 60 minutes at 37°C, read-out: Buf. remaining rate (%/60min)
Experimental: In the tables, Buf. remaining rate was determined by stability test in buffer (pH 7.4) as described below. A sample dissolved in DMSO was mixed with a mixed solution of 100 mM potassium phosphate buffer and acetonitrile in the ratio of 7:3 (v/v). The mixture was incubated at 37°C for 0, 10, and 60 minutes, and acetonitrile containing formic acid (final concentration: 0.1%) was added thereto. The solution was centrifuged, and the concentration of the sample (unchanged form) in the supernatant was determined by high performance liquid chromatography/mass spectrometry (LC/MS). Based on the data obtained, Buf. remaining rate (%) was calculated according to the following equation. Buf.remaining rate(%) = amount of sample 0,10, or 60 minutes after incubation/amount of sample at zero time after incubation × 100 [formula]

[3] = Metabolic stability test in plasma; type: in vitro ADME, human; details: LC/MS; for remaining at 10 min: unchanged form after 10 minutes at 37°C in human plasma, read-out: Remaining rate in human plasma (%/10min); for remaining at 1 h: unchanged form after 60 minutes at 37°C in human plasma, read-out: Remaining rate in human plasma (%/60min)
Experimental: A sample dissolved in DMSO was added to plasma of human or animal species (mouse and hamster). The solutions were incubated at 37°C for 0, 10 and 60 minutes, and acetonitrile containing formic acid (final concentration: 0.1%) was added thereto. The solutions were centrifuged, and the concentration of the sample (unchanged form) in the supernatant was determined by high performance liquid chromatography/mass spectrometry (LC/MS). Based on the data obtained, the remaining rate (%) was calculated according to the following equation. Remaining rate(%) = amount of sample 0,10, or 60 minutes after incubation/amount of sample at zero time after incubation × 100 [formula]
as §1

Row | Compound | remaining at 10 min [1] [%] | remaining at 1 h [1] [%] | remaining at 10 min [2] [%] | remaining at 1 h [2] [%] | remaining at 10 min [3] [%] | remaining at 1 h [3] [%]
1 | CN(C)C(=O)c1cc(CCCC(=O)Oc2ccc(C(=O)OCCN3CCCC3=O)cc2)ccc1NC(=O)c1ccccc1-c1ccc(C(F)(F)F)cc1 [Compound 1-91, 4-[4-(3-dimethylcarbamoyl-4-{(4'-trifluoromethylbiphenyl-2-carbonyl)amino}phenyl)butyryloxy]benzoic acid 2-(2-oxopyrrolidin-1-yl)ethyl ester] | 0 | 0 | 100 | 105 | 31 | 0
2 | COC(=O)c1cc(C(=O)OC(C)C)ccc1OC(=O)CCCc1ccc(NC(=O)c2ccc(C)nc2-c2ccc(C(F)(F)F)cc2)c(C(=O)N(C)C)c1 [Compound 1-72, 4-[4-(3-dimethylcarbamoyl-4-{[6-methyl-2-(4-trifluoromethylphenyl)pyridine-3-carbonyl]amino}phenyl)butyryloxy]isophthalic acid 1-isopropyl ester 3-methyl ester] | 4 | 0 | 113 | 112 | 0 | 0
3 | CC(C)OCCOC(=O)c1ccc(OC(=O)CCCc2ccc(NC(=O)c3ccccc3-c3ccc(C(F)(F)F)cc3)c(C(=O)N(C)C)c2)cc1 [Compound 1-76, 4-[4-(3-dimethylcarbamoyl-4-{(4'-trifluoromethylbiphenyl-2-carbonyl)amino}phenyl)butyryloxy]benzoic acid 2-isopropoxyethyl ester] | 5 | 2 | 99 | 100 | 50 | 1
4 | COC(=O)c1cc(OC)c(OC(=O)CCCc2ccc(NC(=O)c3ccc(C)nc3-c3ccc(C(F)(F)F)cc3)c(C(=O)N(C)C)c2)c(OC)c1 [Compound 1-39, 4-[4-(3-dimethylcarbamoyl-4-{[6-methyl-2-(4-trifluoromethylphenyl)pyridine-3-carbonyl]amino}phenyl)butyryloxy]-3,5-dimethoxybenzoic acid methyl ester] | 5 | 2 | 98 | 104 | 0 | 0
5 | COC(=O)c1ccc(OC(=O)CCCc2ccc(NC(=O)c3ccncc3-c3ccc(C(F)(F)F)cc3)c(C(=O)N(C)C)c2)cc1 [Compound 1-30, 4-[4-(3-dimethylcarbamoyl-4-{[3-(4-trifluoromethylphenyl)pyridine-4-carbonyl]amino}phenyl)butyryloxy]benzoic acid methyl ester] | 0 | 0 | 99 | 99 | 0 | 0
6 | CN(C)C(=O)c1cc(CCCC(=O)Oc2ccc(C(=O)OCc3ccccn3)cc2)ccc1NC(=O)c1ccccc1-c1ccc(C(F)(F)F)cc1 [Compound 1-82, 4-[4-(3-dimethylcarbamoyl-4-{(4'-trifluoromethylbiphenyl-2-carbonyl)amino}phenyl)butyryloxy]benzoic acid pyridin-2-ylmethyl ester] | 0 | 0 | 100 | 103 | 17 | 0
7 | COc1cc(C(=O)OC(C)C)cc(F)c1OC(=O)CCCc1ccc(NC(=O)c2ccc(C)nc2-c2ccc(C(F)(F)F)cc2)c(C(=O)N(C)C)c1 [Compound 1-38, 4-[4-(3-dimethylcarbamoyl-4-{[6-methyl-2-(4-trifluoromethylphenyl)pyridine-3-carbonyl]amino}phenyl)butyryloxy]-3-fluoro-5-methoxybenzoic acid isopropyl ester] | 11 | 2 | 101 | 102 | 0 | 0
8 | COC(=O)c1cc(C)c(OC(=O)CCCc2ccc(NC(=O)c3ccccc3-c3ccc(C(F)(F)F)cc3)c(C(=O)N(C)C)c2)c(Cl)c1 [Compound 1-34, 3-chloro-4-(4-{3-dimethylcarbamoyl-4-[(4'-trifluoromethylbiphenyl-2-carbonyl)amino]phenyl}butyryloxy)-5-methylbenzoic acid methyl ester] | 16 | 4 | 98 | 103 | 52 | 0
9 | CN(C)C(=O)c1cc(CCCC(=O)Oc2ccc(C(=O)OCCCO)cc2)ccc1NC(=O)c1ccccc1-c1ccc(C(F)(F)F)cc1 [Compound 1-92, 4-[4-(3-dimethylcarbamoyl-4-{(4'-trifluoromethylbiphenyl-2-carbonyl)amino}phenyl)butyryloxy]benzoic acid 3-hydroxypropyl ester] | 0 | 0 | 102 | 107 | 71 | 6
10 | CC(C)OC(=O)c1ccc(OC(=O)CCCc2ccc(NC(=O)c3ccccc3-c3ccc(C(F)(F)F)cc3)c(C(=O)N(C)C)c2)cc1 [Compound 1-7, 4-(4-{3-dimethylcarbamoyl-4-[(4'-trifluoromethylbiphenyl-2-carbonyl)amino]phenyl}butyryloxy)benzoic acid isopropyl ester] | 0 | 0 | 98 | 98 | 60 | 0
11 | COC(=O)c1ccc(OC(=O)C2CCN(c3ccc(NC(=O)c4ccccc4-c4ccc(C(F)(F)F)cc4)c(C(=O)N(C)C)c3)CC2)c(F)c1 [Compound 3-2, 1-{3-dimethylcarbamoyl-4-[(4'-trifluoromethylbiphenyl-2-carbonyl)amino]phenyl}piperidine-4-carboxylic acid 2-fluoro-4-methoxycarbonylphenyl ester] | 2 | 0 | 94 | 97 | 24 | 0
12 | COC(=O)c1cc(C)c(OC(=O)CCCc2ccc(NC(=O)c3ccc(C)nc3-c3ccc(C(F)(F)F)cc3)c(C(=O)N(C)C)c2)c(Cl)c1 [Compound 1-35, 3-chloro-4-[4-(3-dimethylcarbamoyl-4-{[6-methyl-2-(4-trifluoromethylphenyl)pyridine-3-carbonyl]amino}phenyl)butyryloxy]-5-methylbenzoic acid methyl ester] | 5 | 0 | 100 | 105 | 43 | 0
13 | COC(=O)c1cc(C)c(OC(=O)CCCc2ccc(NC(=O)c3ccc(C)nc3-c3ccc(C(F)(F)F)cc3)c(C(=O)N(C)C)c2)c(OC)c1 [Compound 1-46, 4-[4-(3-dimethylcarbamoyl-4-{[6-methyl-2-(4-trifluoromethylphenyl)pyridine-3-carbonyl]amino}phenyl)butyryloxy]-3-methoxy-5-methylbenzoic acid methyl ester] | 5 | 2 | 99 | 102 | 39 | 0
